Measured values taken from patent US6140309A, “Vasoactive effects and free radical generation by β-amyloid peptides” (University of South Florida, priority 1996, dated 2000).

Tests used:
[1] = test system: aortic rings; assay: β-amyloid augmentation of phenylephrine (PE) induced contraction of aortic rings; type: cell-based, rat; details: for effect of drug on β-amyloid induced enhancement of PE mediated contraction: β-amyloid 5×10^-7 M, PE 4×10^-8 M, L-NMMA 10^-4 M, indomethacin 10^-5 M, SQ 29548 10^-5 M, catalase 1000 units/ml
Experimental: (§1) Freshly excised rat and porcine blood vessels were placed in Kreb's bicarbonate buffer equilibrated with 5% CO2 in O2. The buffer composition consisted of 118.2 mM NaCl, 4.7 mM KCl, 1.2 mM MgSO4, 2.5 mM CaCl2, 1.2 mM NaH2 PO4, 23 mM NaHCO3 and 11.2 mM glucose. After cleaning the vessels free of fat and other adhering tissues, the vessels were cut into ring segments of approximately 3mm in length. Care was taken not to damage the intimal surface.
(§2) The blood vessel preparations were mounted on stainless steel hooks attached to a force-displacement transducer and equilibrated under the optimum tension of 1.3 g for a period of sixty minutes in a tissue bath (10 ml) containing oxygenated (5% CO2 in O2) Kreb's buffer at 37° C. The buffer was changed every fifteen minutes. After equilibration for sixty minutes the viability of the blood vessel with intact endothelium was established by constricting the blood vessel using phenylephrine ([…]). This dose of phenylephrine elicited 80% of the maximum response. […] The vessel preparations were washed for fifteen minutes before various manipulations as described below.
The procedure was then repeated following incubation of the tissue with 10^-6 M β-amyloid for fifteen minutes (P1). The tissue was then rinsed and contractions repeated twice following fifteen minute incubation (P2 & P3) without further addition of β-amyloid. Arrows are shown for points of addition for P3.
Following a fifteen minute incubation, the preparations were contracted with 10^-7 M phenylephrine (PE) as described earlier. Control contractions with PE alone were carried out in presence of the various test compounds. Values represent the mean ±SEM of four or more experiments. The heat-inactivated SOD was prepared by placing it in boiling water for thirty minutes followed by cooling prior to use. The hydrogen peroxide-inactivated SOD was prepared by exposing SOD to 10 mM H2 O2 for thirty minutes at pH 8.5 and subsequent separation using Microcon filtration system. The amyloid induced PE contraction was blocked by active SOD. Neither albumin or inactivated SOD had any effect on the amyloid activity.
The effect of preincubation of blood vessel with 10^-6 M β-amyloidon contraction induced by phenylephrine (2,4,8, & 16×10^-8 M is shown in Table 1). The maximum contraction in the absence of β-amyloid is taken as 100% and the values obtained following exposure to β-amyloid are expressed as percent of control value. After washing out phenylephrine and acetylcholine of the control contraction, β-amyloid augmented the phenylephrine induced contractions (P1). This effect was blocked by SOD. Washing out the phenylephrine and acetylcholine of the post peptide contraction and repeating the contractions caused further enhancement (P2). Values represent the mean ±SEM of nine or more experiments.
The tissue was then incubated for fifteen minutes with β-amyloid (5×10^-7 M) with or without the drug, followed by contractions with PE. The concentrations compounds used were: L-NMMA, an inhibitor of NO synthase (10^-4 M); indomethacin, an inhibitor of the cyclooxygenase pathway (10^-5 M); SQ 29548, a thromboxane A2 receptor antagonist (10^-5 M); and catalase (1000 units/ml). Values are represented as percentage of the maximal contraction obtained with β-amyloid and PE alone and standardized to remove the intrinsic effects (if any) of each drug on PE contraction alone. The results represent the mean ±SEM of five or more experiments.

[2] = test system: rat coronary arteries; assay: Constriction of rat coronary arteries by β-amyloid peptides and potentiation of U46619 constriction; type: cell-based; details: for coronary artery vasoactivity induced by β-amyloid fragments (real time recording): 10^-6 M β-amyloid peptide
Experimental: The effects of β-amyloid peptide were examined on samples of rat coronary arteries prepared as described above. Referring specifically to FIG. 1, rat coronary arteries were treated with β-amyloid peptide (Aβ40) causing constriction of the coronary arteries.
FIG. 3 illustrates the effect of various amyloid fragments on the constriction of rat coronary arteries. Following control constriction with 10^-7 M U46619, the tissue samples were rinsed, equilibrated with buffer, and treated with 10^-6 M Aβ peptides for fifteen minutes. Following treatment with the Aβ peptides, the blood vessels were rinsed and again exposed to U46619. The values are expressed as percent of control constriction produced by U46619 alone.

[3] = test system: coronary arteries; assay: Acetylcholine induced relaxation of U46619-preconstricted coronary arteries after Aβ40; type: cell-based, rat; details: single dose 10^-6 M Aβ40; 10^-7 M U46619; acetylcholine 10^-9 M to 10^-5 M
From the text: The effect of pretreatment of coronary arteries with a single dose (10^-6 M) of Aβ40 on acetylcholine induced relaxation is shown in FIG. 20. The blood vessel was preconstricted with 10^-7 M U46619 and relaxed with increasing doses of acetylcholine (10^-9 M to 10^-5 M).

[4] = test system: blood vessel; assay: Viability and endothelium test of blood vessel rings: phenylephrine constriction, acetylcholine relaxation; type: cell-based, rat; details: vessel with or without endothelium
Experimental: as §1
The endothelium was removed from some preparations by rubbing the inside of the lumen with a metal spatula for six to ten seconds and subsequent rinsing with buffer. The removal of endothelium was confirmed by testing for relaxation to acetylcholine [Furchgott and Zawadzki, 1980].
as §2

COc1ccc2c(c1)c(CC(=O)O)c(C)n2C(=O)c1ccc(Cl)cc1 [indomethacin]
effect of drug on β-amyloid induced enhancement of PE mediated contraction [1]: none of the compounds used (L-NMMA, indomethacin, SQ29548, or catalase) had any significant effect on the enhancement response

O=C(O)CCC/C=C\C[C@@H]1[C@H](CNNC(=O)Nc2ccccc2)[C@H]2CC[C@@H]1O2 [SQ29548]
effect of drug on β-amyloid induced enhancement of PE mediated contraction [1]: none of the compounds used (L-NMMA, indomethacin, SQ29548, or catalase) had any significant effect on the enhancement response

Aβ40: Soluble Aβ containing forty amino acids
duration of constriction compared among fragments ([2]; 10^-6 M): longest sustained constriction | contraction induced in rat coronary artery ([2]; 10^-6 M Aβ, fifteen minutes): small but detectable contraction | coronary artery vasoactivity induced by β-amyloid fragments (real time recording) [2]: induce constriction of the coronary artery | vasoconstriction induced by U46619 following treatment with Aβ ([2]; U46619 10^-7 M, 10^-6 M Aβ fifteen minutes): significantly potentiated | effect on vasodilation induced by acetylcholine [3]: significantly reduced the vasodilation induced by acetylcholine

CCCCC[C@H](O)/C=C/[C@@H]1[C@@H](C/C=C\CCCC(=O)O)[C@H]2CO[C@@H]1C2 [U46619]
effect of the vasoconstrictor on the coronary artery ([2]; U46619 10^-7 M): also caused constriction of the blood vessel

Aβ25-35: β-amyloid peptide fragment (GSNKGAIIGLM; Amyloid-beta protein 42; UniProt P05067 696-706, looked up, fragment)
coronary artery vasoactivity induced by β-amyloid fragments (real time recording) [2]: induce constriction of the coronary artery

CNC(=N)NCCC[C@H](N)C(=O)O [L-NMMA]
effect of drug on β-amyloid induced enhancement of PE mediated contraction [1]: none of the compounds used (L-NMMA, indomethacin, SQ29548, or catalase) had any significant effect on the enhancement response

catalase
effect of drug on β-amyloid induced enhancement of PE mediated contraction [1]: none of the compounds used (L-NMMA, indomethacin, SQ29548, or catalase) had any significant effect on the enhancement response

CNC[C@H](O)c1cccc(O)c1 [phenylephrine]
constriction in response to phenylephrine [4]: constricted in response to phenylephrine with or without endothelium

albumin
effect of test compound on amyloid induced PE contraction (specificity of SOD action) ([1]; preincubation before 10^-6 M β-amyloid, fifteen minutes, 10^-7 M PE (FIG. 12c)): did not protect the blood vessel against the effects of β-amyloid
